Values belong to the compound of their own block, whether it stands above or below them.
Key:
Assay in all cases: biochemical
ABL1-nonphosphorylated = molecular target: T1, ABL1-nonphosphorylated (Homo sapiens, UniProt P00519); design: KINOMEscan (DiscoverX) competition binding screen of 97 human kinases, percent of control at 10 uM
T1 construct: nonphosphorylated
Method: (§1) The KINOMEscan profiling of the inhibitors were performed as per directions by the manufacturer (DiscoverX) against a panel of human protein kinases.

CDK11 = molecular target: T2, CDK11 (Homo sapiens, UniProt Q9BWU1); design: KINOMEscan (DiscoverX) competition binding screen of 97 human kinases, percent of control at 10 uM
T2 construct: gene CDK19
T2 sequence (Q9BWU1 whole entry): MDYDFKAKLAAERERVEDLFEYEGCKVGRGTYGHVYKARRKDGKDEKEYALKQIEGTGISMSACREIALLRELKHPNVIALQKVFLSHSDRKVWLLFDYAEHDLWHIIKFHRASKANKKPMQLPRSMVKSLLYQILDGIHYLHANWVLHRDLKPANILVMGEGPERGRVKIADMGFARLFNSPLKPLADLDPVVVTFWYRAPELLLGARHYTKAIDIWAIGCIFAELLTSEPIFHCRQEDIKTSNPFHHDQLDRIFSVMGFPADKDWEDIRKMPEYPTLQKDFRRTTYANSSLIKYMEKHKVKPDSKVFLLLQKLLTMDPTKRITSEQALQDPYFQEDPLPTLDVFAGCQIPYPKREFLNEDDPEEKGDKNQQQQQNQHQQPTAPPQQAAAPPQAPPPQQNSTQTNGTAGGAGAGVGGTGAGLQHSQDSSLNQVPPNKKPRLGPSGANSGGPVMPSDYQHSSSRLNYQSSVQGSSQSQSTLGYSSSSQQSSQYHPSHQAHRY
Method: as §1

CDK3 = CDK3 (Homo sapiens, UniProt Q00526); design: KINOMEscan (DiscoverX) competition binding screen of 97 human kinases, percent of control at 10 uM
Method: as §1

CDK7 = CDK7 (Homo sapiens, UniProt P50613); design: KINOMEscan (DiscoverX) competition binding screen of 97 human kinases, percent of control at 10 uM
Method: as §1

CHEK1 = CHEK1 (Homo sapiens, UniProt O14757); design: KINOMEscan (DiscoverX) competition binding screen of 97 human kinases, percent of control at 10 uM
Method: as §1

ERBB2 = ERBB2 (Homo sapiens, UniProt P04626); design: KINOMEscan (DiscoverX) competition binding screen of 97 human kinases, percent of control at 10 uM
Method: as §1

FAK = molecular target: T3, FAK (Homo sapiens, UniProt Q05397); design: KINOMEscan (DiscoverX) competition binding screen of 97 human kinases, percent of control at 10 uM
T3 construct: gene PTK2
Method: as §1

FGFR3 = FGFR3 (Homo sapiens, UniProt P22607); design: KINOMEscan (DiscoverX) competition binding screen of 97 human kinases, percent of control at 10 uM
Method: as §1

GSK3B = GSK3B (Homo sapiens, UniProt P49841); design: KINOMEscan (DiscoverX) competition binding screen of 97 human kinases, percent of control at 10 uM
Method: as §1

INSR = INSR (Homo sapiens, UniProt P06213); design: KINOMEscan (DiscoverX) competition binding screen of 97 human kinases, percent of control at 10 uM
Method: as §1

[1] = molecular target: T4, JAK3(JH1domain-catalytic) (Homo sapiens, UniProt P52333); design: KINOMEscan (DiscoverX) competition binding screen of 97 human kinases, percent of control at 10 uM
T4 construct: JH1domain-catalytic
Method: as §1

KIT(D816V) = KIT(D816V) (Homo sapiens, UniProt P10721, D816V); design: KINOMEscan (DiscoverX) competition binding screen of 97 human kinases, percent of control at 10 uM
Method: as §1

MAPKAPK2 = MAPKAPK2 (Homo sapiens, UniProt P49137); design: KINOMEscan (DiscoverX) competition binding screen of 97 human kinases, percent of control at 10 uM
Method: as §1

MARK3 = MARK3 (Homo sapiens, UniProt P27448); design: KINOMEscan (DiscoverX) competition binding screen of 97 human kinases, percent of control at 10 uM
MARK3, sequence (P27448 whole entry): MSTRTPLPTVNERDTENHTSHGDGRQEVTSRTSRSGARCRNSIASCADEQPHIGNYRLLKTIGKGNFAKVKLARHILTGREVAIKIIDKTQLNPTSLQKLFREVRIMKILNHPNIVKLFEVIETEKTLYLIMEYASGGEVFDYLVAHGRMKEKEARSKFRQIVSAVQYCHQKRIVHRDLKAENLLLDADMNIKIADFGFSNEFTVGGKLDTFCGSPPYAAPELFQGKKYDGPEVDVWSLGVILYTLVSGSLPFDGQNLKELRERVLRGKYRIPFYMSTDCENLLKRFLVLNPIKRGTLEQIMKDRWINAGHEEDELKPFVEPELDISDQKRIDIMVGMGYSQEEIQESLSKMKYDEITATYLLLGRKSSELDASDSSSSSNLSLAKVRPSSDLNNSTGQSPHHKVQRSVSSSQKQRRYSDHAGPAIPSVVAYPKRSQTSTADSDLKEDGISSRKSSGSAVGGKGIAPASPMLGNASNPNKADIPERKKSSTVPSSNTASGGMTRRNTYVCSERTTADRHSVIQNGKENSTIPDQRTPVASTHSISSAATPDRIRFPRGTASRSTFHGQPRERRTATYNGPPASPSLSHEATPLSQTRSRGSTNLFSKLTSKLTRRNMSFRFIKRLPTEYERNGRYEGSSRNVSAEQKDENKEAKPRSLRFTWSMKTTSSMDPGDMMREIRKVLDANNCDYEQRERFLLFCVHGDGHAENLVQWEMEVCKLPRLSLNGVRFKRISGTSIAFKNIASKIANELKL
Method: as §1

MEK1 = molecular target: T5, MEK1 (Homo sapiens, UniProt Q02750); design: KINOMEscan (DiscoverX) competition binding screen of 97 human kinases, percent of control at 10 uM
T5 construct: gene MAP2K1
Method: as §1

PAK1 = PAK1 (Homo sapiens, UniProt Q13153); design: KINOMEscan (DiscoverX) competition binding screen of 97 human kinases, percent of control at 10 uM
Method: as §1

PDGFRB = PDGFRB (Homo sapiens, UniProt P09619); design: KINOMEscan (DiscoverX) competition binding screen of 97 human kinases, percent of control at 10 uM
Method: as §1

PIK3CA = PIK3CA (Homo sapiens, UniProt P42336); design: KINOMEscan (DiscoverX) competition binding screen of 97 human kinases, percent of control at 10 uM
Method: as §1

PIM3 = PIM3 (Homo sapiens, UniProt Q86V86); design: KINOMEscan (DiscoverX) competition binding screen of 97 human kinases, percent of control at 10 uM
Method: as §1

PLK1 = PLK1 (Homo sapiens, UniProt P53350); design: KINOMEscan (DiscoverX) competition binding screen of 97 human kinases, percent of control at 10 uM
Method: as §1

PLK4 = PLK4 (Homo sapiens, UniProt O00444); design: KINOMEscan (DiscoverX) competition binding screen of 97 human kinases, percent of control at 10 uM
PLK4, sequence (O00444 whole entry): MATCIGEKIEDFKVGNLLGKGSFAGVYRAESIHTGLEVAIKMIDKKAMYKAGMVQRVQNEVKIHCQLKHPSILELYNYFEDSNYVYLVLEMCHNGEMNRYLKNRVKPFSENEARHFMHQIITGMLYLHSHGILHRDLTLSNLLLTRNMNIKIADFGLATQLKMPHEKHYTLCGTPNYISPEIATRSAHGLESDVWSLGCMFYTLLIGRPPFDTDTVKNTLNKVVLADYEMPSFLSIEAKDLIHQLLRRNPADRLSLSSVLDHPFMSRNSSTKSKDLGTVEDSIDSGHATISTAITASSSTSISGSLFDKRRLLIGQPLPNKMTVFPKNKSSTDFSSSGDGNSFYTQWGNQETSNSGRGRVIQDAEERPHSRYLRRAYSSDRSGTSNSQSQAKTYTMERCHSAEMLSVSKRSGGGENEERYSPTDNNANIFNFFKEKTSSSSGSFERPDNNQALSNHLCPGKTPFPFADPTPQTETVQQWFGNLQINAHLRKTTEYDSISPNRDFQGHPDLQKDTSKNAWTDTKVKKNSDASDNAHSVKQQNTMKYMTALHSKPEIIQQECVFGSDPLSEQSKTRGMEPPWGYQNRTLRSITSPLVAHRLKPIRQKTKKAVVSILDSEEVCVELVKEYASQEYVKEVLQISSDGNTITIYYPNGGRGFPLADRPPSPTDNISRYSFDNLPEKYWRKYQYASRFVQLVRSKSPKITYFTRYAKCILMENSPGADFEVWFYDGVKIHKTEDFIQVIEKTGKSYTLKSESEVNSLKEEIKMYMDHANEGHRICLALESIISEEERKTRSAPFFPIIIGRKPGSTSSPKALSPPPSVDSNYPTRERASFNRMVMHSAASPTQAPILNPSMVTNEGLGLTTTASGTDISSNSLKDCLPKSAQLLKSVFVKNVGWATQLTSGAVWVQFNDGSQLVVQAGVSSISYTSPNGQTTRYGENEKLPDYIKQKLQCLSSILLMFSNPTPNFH
Method: as §1

SRC = SRC (Homo sapiens, UniProt P12931); design: KINOMEscan (DiscoverX) competition binding screen of 97 human kinases, percent of control at 10 uM
Method: as §1

VEGFR2 = VEGFR2 (Homo sapiens, UniProt P35968); design: gene KDR; KINOMEscan (DiscoverX) competition binding screen of 97 human kinases, percent of control at 10 uM
VEGFR2, sequence (P35968 whole entry): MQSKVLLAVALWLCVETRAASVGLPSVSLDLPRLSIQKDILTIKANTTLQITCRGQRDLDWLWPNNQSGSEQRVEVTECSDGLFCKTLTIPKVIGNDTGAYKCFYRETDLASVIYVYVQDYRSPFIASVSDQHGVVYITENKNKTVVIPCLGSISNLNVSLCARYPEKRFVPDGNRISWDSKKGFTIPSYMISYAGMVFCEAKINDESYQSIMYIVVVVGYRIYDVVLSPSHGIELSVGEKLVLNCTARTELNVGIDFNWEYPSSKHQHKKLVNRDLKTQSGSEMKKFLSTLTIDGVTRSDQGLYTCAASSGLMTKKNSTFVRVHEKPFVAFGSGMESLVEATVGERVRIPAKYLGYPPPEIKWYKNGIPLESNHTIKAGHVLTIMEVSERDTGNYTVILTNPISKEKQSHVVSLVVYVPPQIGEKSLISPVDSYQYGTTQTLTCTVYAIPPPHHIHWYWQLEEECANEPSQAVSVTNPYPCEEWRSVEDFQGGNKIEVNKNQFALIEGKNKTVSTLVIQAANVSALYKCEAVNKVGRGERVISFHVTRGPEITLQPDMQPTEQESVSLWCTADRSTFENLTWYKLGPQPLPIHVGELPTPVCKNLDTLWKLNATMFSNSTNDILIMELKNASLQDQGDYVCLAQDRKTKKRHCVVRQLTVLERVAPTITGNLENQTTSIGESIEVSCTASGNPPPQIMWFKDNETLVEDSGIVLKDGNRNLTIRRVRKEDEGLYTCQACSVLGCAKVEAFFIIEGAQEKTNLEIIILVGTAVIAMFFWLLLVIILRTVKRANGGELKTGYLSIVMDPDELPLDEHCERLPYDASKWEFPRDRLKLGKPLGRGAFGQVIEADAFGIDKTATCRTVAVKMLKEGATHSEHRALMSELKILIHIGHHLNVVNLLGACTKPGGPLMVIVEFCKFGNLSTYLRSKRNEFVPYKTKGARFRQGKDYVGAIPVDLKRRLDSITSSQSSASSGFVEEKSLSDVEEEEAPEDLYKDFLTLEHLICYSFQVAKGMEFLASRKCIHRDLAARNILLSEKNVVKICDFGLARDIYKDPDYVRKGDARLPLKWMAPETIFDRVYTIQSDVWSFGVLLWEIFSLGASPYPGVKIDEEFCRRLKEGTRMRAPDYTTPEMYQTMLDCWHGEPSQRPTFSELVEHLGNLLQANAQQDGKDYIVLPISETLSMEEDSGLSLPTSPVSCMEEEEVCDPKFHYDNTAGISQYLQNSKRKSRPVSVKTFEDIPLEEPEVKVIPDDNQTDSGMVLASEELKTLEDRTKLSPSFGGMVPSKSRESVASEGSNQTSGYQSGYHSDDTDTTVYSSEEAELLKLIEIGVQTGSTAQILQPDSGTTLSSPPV
Method: as §1

TIE2 = TIE2 (Homo sapiens, UniProt Q02763); design: gene TEK; KINOMEscan (DiscoverX) competition binding screen of 97 human kinases, percent of control at 10 uM
Method: as §1

[2] = read-out: R428 %Ctrl @ 10000nM, binding competition
[3] = binding competition, % of control, read-out: RU-301 %Ctrl @ 10000nM

T1 sequence (P00519 whole entry): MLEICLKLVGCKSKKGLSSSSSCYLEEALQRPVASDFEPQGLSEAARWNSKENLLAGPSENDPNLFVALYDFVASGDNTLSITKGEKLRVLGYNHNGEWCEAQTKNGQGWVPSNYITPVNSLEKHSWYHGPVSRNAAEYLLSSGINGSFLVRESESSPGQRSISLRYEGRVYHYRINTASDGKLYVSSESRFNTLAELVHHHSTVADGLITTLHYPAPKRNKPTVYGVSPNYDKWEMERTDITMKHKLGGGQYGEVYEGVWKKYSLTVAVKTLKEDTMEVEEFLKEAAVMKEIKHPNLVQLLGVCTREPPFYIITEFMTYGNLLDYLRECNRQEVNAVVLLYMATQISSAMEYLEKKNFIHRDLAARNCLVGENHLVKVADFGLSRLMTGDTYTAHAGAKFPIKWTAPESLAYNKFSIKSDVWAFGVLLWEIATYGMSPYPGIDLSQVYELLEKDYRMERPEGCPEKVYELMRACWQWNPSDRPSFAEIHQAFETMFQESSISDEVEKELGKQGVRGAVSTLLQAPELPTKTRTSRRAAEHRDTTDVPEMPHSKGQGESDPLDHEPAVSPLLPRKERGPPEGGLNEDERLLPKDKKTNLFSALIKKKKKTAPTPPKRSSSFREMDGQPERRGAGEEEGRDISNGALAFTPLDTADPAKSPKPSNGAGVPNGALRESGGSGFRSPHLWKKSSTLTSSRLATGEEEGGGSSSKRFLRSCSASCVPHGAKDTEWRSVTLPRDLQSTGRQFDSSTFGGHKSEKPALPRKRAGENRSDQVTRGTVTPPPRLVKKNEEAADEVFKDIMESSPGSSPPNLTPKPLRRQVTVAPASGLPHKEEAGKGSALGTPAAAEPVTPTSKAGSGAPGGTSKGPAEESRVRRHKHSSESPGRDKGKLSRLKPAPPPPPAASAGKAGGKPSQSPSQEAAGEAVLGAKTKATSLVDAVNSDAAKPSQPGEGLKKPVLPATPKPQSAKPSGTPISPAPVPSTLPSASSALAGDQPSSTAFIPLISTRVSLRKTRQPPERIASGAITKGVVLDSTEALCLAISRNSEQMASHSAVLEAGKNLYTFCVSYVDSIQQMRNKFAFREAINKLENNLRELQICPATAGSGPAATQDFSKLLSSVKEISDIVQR

percent of control binding at 10 µM (ABL1-nonphosphorylated; [2]): 0.25%
percent of control binding at 10 µM (CDK11; [2]): 98%
percent of control binding at 10 µM (CDK3; [2]): 72%
percent of control binding at 10 µM (CDK7; [2]): 23%
percent of control binding at 10 µM (CHEK1; [2]): 15%
percent of control binding at 10 µM (ERBB2; [2]): 46%
percent of control binding at 10 µM (FAK; [2]): 83%
percent of control binding at 10 µM (FGFR3; [2]): 30%
percent of control binding at 10 µM (GSK3B; [2]): 74%
percent of control binding at 10 µM (INSR; [2]): 14%
percent of control binding at 10 µM [1, 2]: 0.2%
percent of control binding at 10 µM (KIT(D816V); [2]): 0.15%
percent of control binding at 10 µM (MAPKAPK2; [2]): 87%
percent of control binding at 10 µM (MARK3; [2]): 49%
percent of control binding at 10 µM (MEK1; [2]): 3%
percent of control binding at 10 µM (PAK1; [2]): 74%
percent of control binding at 10 µM (PDGFRB; [2]): 0%
percent of control binding at 10 µM (PIK3CA; [2]): 45%
percent of control binding at 10 µM (PIM3; [2]): 84%
percent of control binding at 10 µM (PLK1; [2]): 2.9%
percent of control binding at 10 µM (PLK4; [2]): 1.7%
percent of control binding at 10 µM (SRC; [2]): 14%
percent of control binding at 10 µM (VEGFR2; [2]): 1%
percent of control binding at 10 µM (TIE2; [2]): 0.45%
Compound: Nc1nc(Nc2ccc3c(c2)CC[C@@H](N2CCCC2)CC3)nn1-c1cc2c(nn1)-c1ccccc1CCC2 [R428]

remaining binding at 10 µM (ABL1-nonphosphorylated; [3]): 100%
remaining binding at 10 µM (CDK11; [3]): 94%
remaining binding at 10 µM (CDK3; [3]): 93%
remaining binding at 10 µM (CDK7; [3]): 85%
remaining binding at 10 µM (CHEK1; [3]): 83%
remaining binding at 10 µM (ERBB2; [3]): 94%
remaining binding at 10 µM (FAK; [3]): 100%
remaining binding at 10 µM (FGFR3; [3]): 91%
remaining binding at 10 µM (GSK3B; [3]): 98%
remaining binding at 10 µM (INSR; [3]): 89%
remaining binding at 10 µM [1, 3]: 95%
remaining binding at 10 µM (KIT(D816V); [3]): 100%
remaining binding at 10 µM (MAPKAPK2; [3]): 100%
remaining binding at 10 µM (MARK3; [3]): 87%
remaining binding at 10 µM (MEK1; [3]): 75%
remaining binding at 10 µM (PAK1; [3]): 97%
remaining binding at 10 µM (PDGFRB; [3]): 91%
remaining binding at 10 µM (PIK3CA; [3]): 100%
remaining binding at 10 µM (PIM3; [3]): 86%
remaining binding at 10 µM (PLK1; [3]): 95%
remaining binding at 10 µM (PLK4; [3]): 81%
remaining binding at 10 µM (SRC; [3]): 96%
remaining binding at 10 µM (VEGFR2; [3]): 99%
remaining binding at 10 µM (TIE2; [3]): 100%
Compound: Cc1cc(CSc2ccccc2C(=O)NCCNc2ccc(C(F)(F)F)cc2[N+](=O)[O-])on1 [RU-301]

From PMC5341070, “Small molecule inhibitors block Gas6-inducible TAM activation and tumorigenicity” (Scientific Reports, 2017)
